Data set [1] can be described thus: pH-potentiometric equilibrium titrations of the ligand (butrol) in the presence of Ca2+ ions. It is filed as physicochemical. The method, then:
The thermodynamic stability constant of Calcobutrol and the acid dissociation constant have been determined by pH-potentiometric equilibrium titrations of the ligand (butrol) in the presence of Ca^2+ ions (at 25° C., in 0.1 N KCl) at different ratios of Ca^2+:ligand.
Based on these measured values, the distribution of calcium between free calcium ion, neutral complex (Calcobutrol, ligand has two negative charges), and anionic complex (ligand has three negative charges) can be calculated for different pH values. […] Due to this equilibrium between the calcium-containing species, preparative methods in aqueous solution will lead to some impurities.

Data set [2] in a line: Properties of the Calcobutrol product and of Gadovist solutions prepared from it. It is filed as physicochemical. Conditions: product of the process. An excerpt: The Calcobutrol prepared in this manner is characterised by a very high quality. […] The whole process, from Gadobutrol to Calcobutrol, is characterised by a high reproducibility and workability. The total yield of 91.2% is very good. […] The sodium salt of Calcobutrol is obtained through addition of a stoichiometric amount of sodium hydroxide in situ.

For `O=C([O-])CN1CCN(CC(=O)[O-])CCN(C(CO)C(O)CO)CCN(CC(=O)[O-])CC1.O=C([O-])CN1CCN(CC(=O)[O-])CCN(C(CO)C(O)CO)CCN(CC(=O)[O-])CC1.[Ca+2].[Ca+2].[Ca+2]` (centres unmarked) [Calcobutrol, calcium complex of 10-(2,3-Dihydroxy-1-(hydroxymethyl)propyl)-1,4,7,10-tetraazacyclodecane-1,4,7-triacetic acid], in data set [1] (25° C., 0.1 N KCl, different ratios of Ca2+:ligand, KCaL-=[CaL-]/[Ca2+][L3-]), the “thermodynamic stability constant log(KCaL-)” value is 14.67±0.02. The “acid dissociation constant pKa” value in data set [1] (25° C., 0.1 N KCl, Ka=[CaL-][H+]/[CaLH]) turned out to be 3.39±0.12. In addition, the “share of neutral complex among the calcium-containing species” value in data set [1] (calculated from measured constants, at any pH (FIG. 1)) is reported as ≤ 20%. For the same compound, in data set [2], the solubility in water entry is reported as “soluble in water” and the storage stability entry is on record as “stable for storage”.

(Values after patent US9447053B2, “Process for the preparation of calcobutrol” (Bayer Intellectual Property GMBH, priority 2009, dated 2016).)
